In patent publication US5736523A, “Antineoplastic heteronapthoquinones” (Biochem Pharma Inc., priority 1995, dated 1998) one finds VLB/OV3 data, which are given here for 10 compounds.

Where a name gives a salt, the structure may show the parent alone.

The test system of this assay is SKVLB (Ovarian; multidrug resistant). The experiment in a line: In vitro cytotoxicity, microculture tetrazolium (MTT) assay, SKVLB. Format: cell-based, human. The settings on record: ratio SKVLB / SKOV3. The method, then: In Vitro Cytotoxicity--Microculture Tetrazolium Assay
The microculture tetrazolium assay was used to test in vitro cytotoxicity. This assay is described in Plumb, J. A. et al., 1989 Cancer Research 49, 4435-4440, which is herein incorporated by reference. The cytotoxicity of compounds towards tumor cells is measured in vitro using the assay. This assay method is based upon the ability of live, but not dead cells to reduce the yellow water soluble dye 3-(4;5-dimethylthiazol-2-yl)-2,5-diphenyltetrazolium bromide (MTT) to its water insoluble purple formazan product.
Human Tumor Cell lines, used were:
SKVLB (Ovarian; multidrug resistant)--Dr. V. Ling, Ontario
The cells were maintained in exponential growth in culture in minimal essential media (MEM) supplemented with non-essential amino acids, and containing 15% (v/v) fetal bovine serum, 5 mM L-glutamine, 1 mM sodium pyruvate, and 0.1 U/ml insulin. All cell lines were grown at 37° C. in an atmosphere of 5% CO2 in air.
Test compounds: 20 mM in DMSO and diluted to a final concentration of 200 μM in culture medium before use.
The following is the generic description of the assay method. It should be noted that although the conditions described work well with the cells listed above, the initial plating density and the MTT concentration used should be verified for each new cell line used to test compounds.
For each assay, doxorubicin is included as an inter-assay standard. This allows us to monitor the behaviour of the assay in general, and in particular, to check that the SKVLB line has maintained its resistant phenotype.
The plate layout is done in the following manner: The assays are carried out in 96-well (8 well×12 well) microtiter plates. Serial dilutions of the compound are tested along the length of the plate. A 1:3 serial dilution of compound in culture medium covers a concentration range from 100 μM to 1.7 nM. Each concentration of compound is tested in quadruplet, allowing two compounds to be tested per plate. Wells containing no cells (blank) and cells with no test compound (control) are included on each plate.
Cells are plated out in 100 μl of culture medium in the microtiter plates at a density of around 1,500-4,000 cells per well. The plates are incubated overnight to allow the cells to become adherent after which the test compound is added (100 μl of appropriate dilution per well). The cells are incubated with test compound at 37° C. for 48 h after which the compound is replaced with fresh medium. After a further 48 h incubation at 37° C., 50 μl of MTT solution (2 mg/ml) is added to each well. The plates are incubated in the dark for 4 h at 37° C. after which the medium is removed. The MTT formazan product is extracted from the cells by the addition of 200 μl DMSO followed by 50 μl of Sorensen's buffer. The plates are shaken briefly and the absorbance at 570 nm is read using a Molecular Devices UV max plate reader. Curves are fit to the MTT assay data using a four parameter logistic equation, and the data are normalized to fit a 0% to 100% survival scale.

As to `CC(=O)[C@]1(C)CC2=C(C(=O)c3ccccc3C2=O)[C@H](O[C@H]2C[C@H](NC(=O)C(F)(F)F)[C@H](O)[C@H](C)O2)O1` [BCH2090, (1'S,1S,3S)-1-(3'-trifluoroacetamido-2',3',6'-trideoxy-L-lyxohexopyranose)-3-acetyl-3-methyl-5,10-dioxo-4,5,10-trihydro-1H-naphtho-[2,3-c]-pyran], the VLB/OV3 is 3.29. The value for `COC(=O)[C@@]1(C)CC2=C(C(=O)c3ccccc3C2=O)[C@H](O[C@H]2C[C@H](NC(=O)C(F)(F)F)[C@H](O)[C@H](C)O2)O1` [BCH2076, (1'S,1S,3R)-1-(3'-trifluoroacetamido-2',3',6'-trideoxy-lyxo-L-hexopyranose)-3-methoxycarbonyl-3-methyl-3,4,5,10-tetrahydro-5,10-dioxonaphtho-[2,3-c] pyran] was 9; that for `CC(=O)O[C@H]1[C@@H](I)[C@H](O[C@@H]2O[C@@H](C(C)=O)CC3=C2C(=O)c2ccccc2C3=O)O[C@@H](C)[C@H]1OC(C)=O` [BCH1667, (1'S,1S,3R)-methyl-(1-[2',6'-dideoxy-3',4'-diacetoxy-2'-iodo-L-lyxohexopyranose]-5,10-dioxo-3,4,5,10-tetrahydronaphtho [2,3-c]-pyran-3-yl) ketone] was 7.32. Turning to `CC[C@H]1CC2=C(C(=O)c3ccccc3C2=O)[C@H](O[C@H]2C[C@H](NC(=O)C(F)(F)F)[C@H](O)[C@H](C)O2)O1` [BCH2020, (1'S,1S,3S)-5,10-dioxo-3-ethyl-1-(2',3',6'-trideoxy-3'-trifluoroacetamido-L-lyxohexopyranose)-3,4,5,10-tetrahydro-1H-naphtho-[2,3-c]-pyran], the VLB/OV3 stood at 2.31. On to `Nc1nc(C2CC3=C(CO2)C(=O)c2ccccc2C3=O)cs1` (stereo not shown) [BCH1189, 3-(3'-aminothiazolyl)-5,10-dioxo-1,3,4,5,10-pentahydronaphtho-[2,3-c]-pyran], for which the VLB/OV3 is recorded as 4.09. The value for `COC1OC(C(=O)NCCN2CCCC2)=CC2=C1C(=O)c1ccccc1C2=O.Cl` (stereo not shown) [BCH2839, 1-methoxy-3-[2-(N-pyrrolidinyl)ethylaminocarbonyl]-5,10-dioxo-5,10-dihydro-1H-naphtho-[2,3-c]-pyran hydrochloride salt] was 6.14-9.98; that for `C[C@@H]1O[C@@H](O[C@H]2O[C@H](COc3ccccc3)CC3=C2C(=O)c2ccccc2C3=O)C[C@H](NC(=O)C(F)(F)F)[C@@H]1O` [BCH2032, (1'S,1R,3S)-5,10-dioxo-3-phenyloxymethyl-1-(2',3',6'-trideoxy-3'-trifluoroacetamido-L-lyxohexopyranose)-3,4,5,10-tetrahydro-1H-naphtho-[2,3-c] pyran] was 2-2.93; that for `CC(=O)C1CC2=C(C(=O)c3ccccc3C2=O)C(OCC2CCCCN2)O1` (racemic) [BCH2069, Methyl-(1-O-[2'-piperidinemethanol]-5,10-dioxo-3,4,5,10-tetrahydronaphthaleno-[2,3-c]pyran-3-yl) ketone, racemic, hydrochloride] was 2-9.8. The value for `CC(=O)[C@H]1CC2=C(C(=O)c3ccccc3C2=O)[C@H](O[C@@H]2O[C@@H](C)[C@@H](O)[C@@H](O)[C@H]2I)O1` [BCH2014, (1'S,1S,3R)-methyl-(1-[2',6'-dideoxy-3',4'-dihydroxy-2'-iodo-L-lyxohexopyranose]-5,10-dioxo-3,4,5,10-tetrahydronaphtho [2,3-c]-pyran-3-yl)-ketone] was 1.85. Take `CC(=O)C1CC2=C(C(=O)c3ccccc3C2=O)C(OCC2CCCNC2)O1` (mixture of isomers) [BCH2061, Methyl-(1-O-[3-piperidinemethanol]-5,10-dioxo-3,4,5,10-tetrahydronaphthaleno-[2,3-c]pyran3-yl) ketone hydrochloride salt, mixture of isomers]: the VLB/OV3 was 18.
